The text below walks through data of US11806555B2, “Methods for treating hair loss disorders” (THE TRUSTEES OF COLUMBIA UNIVERSITY IN THE CITY OF NEW YORK, priority 2010, dated 2023).

Entries after “also recorded” stand apart in the source; their conditions may differ. Where two headings read alike, the source gives them in different places.

In data set [1] the test system is Th1 and Th17 transcript markers and keratin 16. Particulars: cited from earlier work.
For data set [2] the following is noted: rodent; cited from earlier work.
Data set [3] has as its system epidermal thickening and dermal inflammation. The conditions noted are these: in vivo; cited from earlier work.
The conditions of data set [4]: all dose groups; cited from earlier work.
The conditions of data set [5]: Active (n = 149); cited from earlier work.
The test system of data set [6] is telogen hair follicles of normal C57BL/6 mice. As to the kind of experiment: induction of anagen by topical treatment of normal mice in telogen. It is filed as in vivo, mouse. Particulars: for proliferation in the telogen hair follicle (Ki67) / keratinocyte matrix cells / induction of anagen: vs vehicle; for induction of anagen: topical, mice in telogen. The procedure:
7-8 weeks old animals in telogen were treated with controls or JAK STAT inhibitors.
Right half of each mouse was administered topical drug, left half of each mouse was treated with DMSO alone.
To test whether inhibition of JAK-STAT signaling could therefore trigger the telogen-to-anagen transition, a topical JAK3 inhibitor was applied to test whether anagen could be induced in normal mouse skin in telogen.

In data set [7] the test system is C3H/HeJ mice with long-standing AA. The conditions noted are these: for CD8+NKG2D+ T cells in treated skin: flow cytometry. (A flow cytometer gives signals particle by particle.)
Procedure: (§1) To make a single cell suspension of mouse skin, fat was removed from the overlying skin in cold PBS and then incubated in collagenase type I (2 mg/ml in PBS) at 32° C. for 75 minutes. After digestion the skin was minced in RPMI/10% fetal bovine serum, filtered through a 70 mM cell strainer, and centrifuged at 1100 g for 5 minutes. The pellet was resuspended in RPMI/10% fetal bovine serum, filtered through a 40 mM cell strainer and spun at 400 g for 5 mins. The pellet was resuspended in FACs buffer (PBS/5% BSA), DAPI to gate on live cells and staining antibodies (listed in Supplemental Data). Cutaneous lymph nodes were pooled minced in RPMI, filtered through a 40 mM cell strainer, centrifuged at 400 g for 5 minutes stained and analysed on a BD LSR II flow cytometer.
(§2) ALADIN scores. The IFN and CTL signatures were used to develop a bivariate score statistic. Individual signature IFN and CTL scores were determined following procedures used in human SLE^,S9,S10. The sets of genes selected to comprise our IFN and CTL signatures were CD8A, GZMB, and ICOS for the CTL signature, and CXCL9, CXCL10, CXCL11, STAT1, and MX1 for the IFN signature. The scores for the prevention mice were calculated in relation to the sham mice; whereas, the scores for the topical treatment experiments were calculated relative to all the samples at week zero.
For data set [8], the system named is human embryonic scalp. The experiment in a line: drug treatment of human fetal scalp in vitro, hair follicle morphogenesis. Also noted: dose or concentration left out as unconfirmed. It is filed as cell-based. Particulars: human embryonic scalp at 20 weeks, vs DMSO.
Source text: Skin was harvested and sectioned and assessed for hair follicle morphology.
The test system of data set [9] is C3H/HeJ mice with long-standing alopecia areata. The conditions noted are these: for hair regrowth / reversal of alopecia areata: systemic (pump), established AA; for CD8+NKG2D+ T cells in skin and cutaneous lymph nodes: flow cytometry.
Procedure: as §1
The conditions of data set [10]: C3H/HeJ, mouse, in vivo, 10 mg/kg/day.
The subject of data set [11] is IL-15 triggered pSTAT3 activation. As to the kind of experiment: IL-15-induced Stat3 activation in T cells. The conditions noted are these: T cells / CTL effectors. It is filed as cell-based.
The subject of data set [12] is alopecia areata in grafted C3H/HeJ mice. Particulars: for CD8+NKG2D+ T cells in skin and cutaneous lymph nodes: flow cytometry; for ALADIN score / transcriptional signature / GEDI (CTL and IFN signatures): skin; for development / onset of alopecia areata: systemic treatment from time of grafting.
Source text: Alopecia areata is graded based on severity, location of inflammatory cells, types and relative numbers of inflammatory cells (granulocytes, mast cells, lymphocytes), follicular dystrophy, etc.
Protocol #1: In the prevention setting, recipient mice will be treated beginning the first week after grafting.
Transfer of Alopecia Areata using grafted C3H/HeJ skin. Normal-haired C3H/HeJ mice were grafted at 8 weeks of age (during the second telogen) with skin from a C3H/HeJ mouse that developed AA spontaneously, as described previously^7. In brief, mice spontaneously affected with AA were euthanized, full thickness skin grafts of approximately 2 cm in diameter were removed and grafted to normal-haired C3H/HeJ mice.
Flow cytometric analysis of skin and cutaneous lymph nodes. To make a single cell suspension of mouse skin, fat was removed from the overlying skin in cold PBS and then incubated in collagenase type I (2 mg/ml in PBS) at 32° C. for 75 minutes. After digestion the skin was minced in RPMI/10% fetal bovine serum, filtered through a 70 mM cell strainer, and centrifuged at 1100 g for 5 minutes. The pellet was resuspended in RPMI/10% fetal bovine serum, filtered through a 40 mM cell strainer and spun at 400 g for 5 mins. The pellet was resuspended in FACs buffer (PBS/5% BSA), DAPI to gate on live cells and staining antibodies (listed in Supplemental Data). Cutaneous lymph nodes were pooled minced in RPMI, filtered through a 40 mM cell strainer, centrifuged at 400 g for 5 minutes stained and analysed on a BD LSR II flow cytometer.
Prevention and Treatment Studies. For prevention studies, mice were treatment beginning the day of grafting (n=5-10 mice per group).
as §2
Data set [13] concerns IL-15 signaling. The conditions noted are these: human whole blood assays; cited from earlier work.
In data set [14] the test system is dermal sheath cells. The experiment in a line: IL-15-induced LAK cell cytotoxicity against dermal sheath cells. In kind it is cell-based, mouse. The procedure:
In vitro cytotoxicity assays. Determination of specific killing of target cells was performed using CFSE-labeled DS cells at targets mixed with different ratios of effector cells incubated for 5 hours at 37° C. 5% CO2 with or without neutralizing rat anti-mouse NKG2D antibody (20 ug/ml) (Biolegend, CX5). Specific lysis of DS cells was determined flow cytometrically by measuring cell death of CFSE+DS cells using Annexin V/7-AAD.

Where [15] appears, read: topical vs systemic administration.

On to `N#CCC(C1CCCC1)n1cc(-c2ncnc3[nH]ccc23)cn1` (stereo not drawn) [INCB018424], for which, in [1] (psoriasis subjects, topical), the clinical responses entry is “rapid clinical responses” and the “cutaneous Th1/Th17 cytokine responses” value is “normalization”. Moreover, the “Th1 and Th17 transcript markers and keratin 16” value in [1] (topical treatment) is on record as “decreased”. Also, the “half-life (t1/2)” value in data set [2] is 3 to 6 h. Moreover, in data set [3], the “epidermal thickening and dermal inflammation” value is given as “markedly reduces”; the pathological skin thinning result is “No pathological skin thinning is observed”. Further, the “Total Lesion Score, decrease over vehicle” value in [4] is at least 2 ×. Further, in data set [5], the “Adverse event: Abdominal pain, number” value is listed as 3; the “Adverse event: Abdominal pain, value in brackets” value was “(2.0)”; the “Adverse event: Application site irritation, pruritus, number” value is listed as 14; the “Adverse event: Application site irritation, pruritus, value in brackets” value is on record as “(9.3)”. Besides, in data set [5], the “Adverse event: Back Pain, value in brackets” value is given as “(3.4)”; the “Adverse event: Headache, number” value is 4; the “Adverse event: Headache, value in brackets” value is given as “(2.7)”; the “Adverse event: Influenza, number” value is on record as 4. Besides, in [5], the “Adverse event: Influenza, value in brackets” value was “(2.7)”; the “Adverse event: Nasopharyngitis, number” value is 10; the “Adverse event: Nasopharyngitis, value in brackets” value is reported as “(6.7)”; the “Adverse event: Sinusitis, number” value is given as 6. Further, in data set [5], the “Adverse event: Sinusitis, value in brackets” value is reported as “(4.0)”; the “Adverse event: Upper respiratory tract infection, number” value is reported as 10; the “Adverse event: Upper respiratory tract infection, value in brackets” value is on record as “(6.7)”.

For the compound `CNC1CCC(N(Cc2cccc(-c3ccncc3)c2)C(=O)c2sc3ccccc3c2Cl)CC1` (stereo not drawn) [SAG], the “time to induction of anagen” value in data set [6] (post treatment) was in the range of 4 to 7 days. The “proliferation in the telogen hair follicle (Ki67) / keratinocyte matrix cells” value in data set [6] was “marked proliferation”.

In the case of `CC1CCN(C(=O)CC#N)CC1N(C)c1ncnc2[nH]ccc12` (stereo not drawn) [tofacitinib], the “disease recurrence after treatment withdrawal” value in data set [7] (additional 8 weeks after withdrawal) was “no evidence of disease recurrence”. In addition, the “untreated areas on the abdomen” value in data set [7] (drug applied to back skin only) is on record as “remained alopecic”. Further, in data set [7], the “CD8+NKG2D+ T cells in treated skin” value is “disappearance”. In data set [7] (mouse, in vivo), the ALADIN transcriptional signature entry is “normalization”, the “durability of effects after cessation of treatment” value is 2-3 months and the “histological markers of disease” value is “reversal”. The “time to full coat of hair” value in [7] (topical 0.5% daily) was at most 7 weeks. In addition, the “time to complete hair regrowth” value in data set [7] (topical therapy) is listed as at most 12 weeks. For the same compound, the “reversal of established / long-standing AA” value in data set [7] (topical, daily, 0.5%) was “highly effective; also recorded: reversal”. The “hair follicle morphology, stage of first anagen of morphogenesis” value in data set [8] is “more advanced”. The “hair regrowth / reversal of alopecia areata” value (shortened to “hair regrowth / reversal”) in data set [9] is reported as “complete”. This compound also came in with a serum levels in data set [10] of 30 to 40 nM. In addition, the “IL-15-induced Stat3 (pSTAT3) activation” value in data set [11] is “block; also recorded: inhibits”. Further, the durability of effect result in [6] (1% daily for 3 weeks) is reported as “more than 1 month”. For the same compound, in data set [6] (mouse, in vivo), the “number of hair follicles vs vehicle treated” value is “greater” and the “thickness of hair follicles vs vehicle treated” value is given as “greater”. In [6], the induction of anagen entry is on record as “marked induction of anagen” and the “proliferation in the telogen hair follicle (Ki67) / keratinocyte matrix cells” value was “marked proliferation”. Besides, the “development of cutaneous lymphadenopathy” value in [12] (10 mg/kg/day Alzet pump, 5 mice) is “None”. Also, in data set [12], the “CD8+NKG2D+ T cells in skin and cutaneous lymph nodes” value is “eliminated; also recorded: prevented”; the “ALADIN score / transcriptional signature” value is “prevented the emergence”; the “GEDI (CTL and IFN signatures)” value is listed as “prevented the emergence”; the “development / onset of alopecia areata” value is “prevents and None and prevented and inhibited”. The “IFN-response chemokines and markers of CD8 cytotoxic effectors in skin” value in [12] (microarray, 13 weeks of treatment vs PBS) is “elimination”. Further, in [12] (mouse, in vivo), the “HF NKG2DL expression (e.g. H60 by immunostain)” value is recorded as “reduced although not completely eliminated”; the “durability of disease prevention after treatment withdrawal” value is recorded as 12 weeks; the “histological signs of inflammation in skin” value is listed as “no histological signs of inflammation”; the “inflammatory biomarkers in the skin, including MHC molecules and IFN signature” value was “down-regulated”. Besides, the inflammatory infiltrate entry in data set [12] (photomicrographs, FIG. 53) is on record as “normalizes”. The “development / onset of alopecia areata” value in data set [12] (listed as CP690550) is recorded as “prevention of AA”. Further, the IL-15 signaling entry in [13] was “inhibit”. In [14], the “IL-15-induced LAK cell cytotoxic function (dermal sheath cell cytotoxicity)” value was “inhibit”.

With tofacitinib, the “CD8+NKG2D+ T cells in treated skin” value in data set [7] was “significantly decreased”. In addition, in data set [7] (setting [15]), the “pigmentation of regrown hair coat” value was “darkly pigmented” and the “speed of hair regrowth” value is given as “very rapid”. Moreover, in [9] (listed as JAK3i), the “CD8+NKG2D+ T cells in skin and cutaneous lymph nodes” value is given as “eliminated”; the “hair regrowth / reversal” value is recorded as “induced hair regrowth all over the body”. Also, in data set [9] (listed as JAK3 inhibitor), the “CD8+NKG2D+ T cells in skin and cutaneous lymph nodes” value is listed as “elimination; also recorded: devoid”; the “hair regrowth / reversal” value is listed as “exhibit hair regrowth”. Moreover, the “persistence of effect after cessation of treatment” value in data set [9] (mouse, in vivo) is given as 2-3 months. Besides, in data set [6] (mouse, in vivo), the “effect on anagen induction compared with SAG” value is “comparable”; the “time to induction and growth of robust pigmented anagen hairs” value is on record as 1-2 weeks. In addition, the induction of anagen entry in data set [6] is on record as “striking anagen induction”. Besides, in data set [12] (listed as JAK3 PTKi), the “CD8+NKG2D+ T cells in skin and cutaneous lymph nodes” value was “eliminating expansion”; the “development / onset of alopecia areata” value is recorded as “effectively prevented”. Further, in [12] (listed as JAK3i), the “CD8+NKG2D+ T cells in skin and cutaneous lymph nodes” value is “significantly decreased”. Further, in data set [12] (listed as JAK3 inhibitor), the “CD8+NKG2D+ T cells in skin and cutaneous lymph nodes” value is on record as “completely eliminated”; the “development / onset of alopecia areata” value is “do not develop alopecia”. The “expression of CD4, CD8, MHC class I and II in skin” value in data set [12] (immunohistochemical staining) was “significantly decreased”. Further, the “inflammatory biomarkers in the skin, including MHC molecules and IFN signature” value in [12] (mouse, in vivo) is listed as “ablating”. Besides, the “inflammatory profiles (skin microarray, T cell infiltrate stains, serum markers)” value in data set [12] (osmotic pump) is listed as “decreased inflammatory profiles”. Besides, the “mice that developed alopecia” value in [12] (osmotic pump, by six weeks following transplantation, PBS 4/4, vehicle pump 2/2) is 0/5. For the same compound, in data set [12], the “ALADIN score / transcriptional signature” value is listed as “normalization”; the “GEDI (CTL and IFN signatures)” value is recorded as “reduction”.
